Earlier results as cited in patent US12377095B2, “Use of ligustrazine nitrone derivatives in treatment and prevention of diabetic complication diseases” (QINGDAO HAILAN PHARMACEUTICALS CO., LTD., priority 2019, dated 2025).
Read-outs that look alike come from different tables or passages of the source.

What was measured:
[1] = system: rats with diabetic nephropathy; conditions: rats with diabetic nephropathy induced by streptozotocin; cited from earlier work
[2] = system: human renal proximal tubule cells; conditions: cited from earlier work
[3] = system: patients with diabetic nephropathy; conditions: cited from earlier work
[4] = system: patients with type 2 diabetes with peripheral neuropathy; conditions: cited from earlier work
[5] = rabbit, intraperitoneal injection of tetramethylpyrazine hydrochloride; cited from earlier work
[6] = system: patients with diabetic retinopathy; conditions: electronically controlled tetramethylpyrazine ion added to puerarin injection and Zishen Jianpi Huayu Recipe; control group 67.50%; cited from earlier work
[7] = combined application vs conventional treatment group

## Cc1nc(C)c(C)nc1C [tetramethylpyrazine, Tetramethylpyrazine]
[1]
  blood glucose: down-regulate
  renal function: significantly improve
  urine protein exclusion: down-regulate
[2]
  activity against sodium arsenite-induced damage: protective activity
[3]; [7]
  24 h total urine proteins: reduce
  24 h urinary albumin excretion rate: reduce
  24 h urine protein quantitation: reduce
  effect on reduction of blood urea nitrogen: not significant
  effect on reduction of diastolic blood pressure: not significant
  effect on reduction of systolic blood pressure: not significant
[3]; tetramethylpyrazine injection, patients with diabetic nephropathy
  adverse reaction during the use: no indication of serious adverse reaction
[4]; conventional dose injection 80 mg/d
  total effective rate of treatment: 82.93%
[4]; injection 360-400 mg/d, intravenous drops, 12 d course
  total effective rate of treatment: 95%
[5]
  entry into retinal tissue: can enter the retinal tissue through the blood-retinal barrier
[6]
  total effective rate: 86.84%
